Legend:
[1] = Stability toward human plasma; format: in vitro ADME; conditions: 37.0° C., over 2-3 hours
Description: The freshly collected human plasma was stored in a refrigerator and used within 1 week from the date it was collected. A portion of […] at a standard methanol solution of the compound to be tested was mixed with 7.0 ml of plasma, previously equilibrated to 37.0° C., to result in an initial concentration of 0.2 mg/ml. Samples of 1.0 ml were withdrawn from the test medium, mixed immediately with 4.0 ml of ice cold 95% ethanol, and placed in a freezer. When all samples had been collected, they were centrifuged and the supernatant analyzed by HPLC.

[2] = tested on: esterase (carboxylic-ester hydrolase, EC 3.1.1.1); experiment: Stability toward purified esterases: esterase (carboxylic-ester hydrolase, EC 3.1.1.1); format: in vitro ADME, porcine; conditions: pH 8.0, 37.0° C., over 2-3 hours
Description: (§1) The effect of esterase (carboxylic-ester hydrolase, EC 3.1.1.1) and butyryl cholinesterase (EC 3.1.1.8), isolated from porcine liver and horse serum, was tested as follows: A portion of the enzyme and […] of a standard solution of the compound in methanol were added to 2.50 ml of 0.05M TRIS buffer, pH 8.0, previously equilibrated to 37.0° C., resulting in solutions containing 5.2 units of enzyme and 0.4 mg of compound in one ml. Aliquots ([…]) were injected into the column at various intervals.

[3] = tested on: butyryl cholinesterase (EC 3.1.1.8); experiment: Stability toward purified esterases: butyryl cholinesterase (EC 3.1.1.8); format: in vitro ADME, horse; conditions: pH 8.0, 37.0° C., over 2-3 hours
Description: as §1

[4] = Metabolism in bovine liver microsomal preparations; format: in vitro ADME; conditions: 37.0° C., pH 8.0, 1 mg/ml
Description: Two kg of minced bovine liver were mixed with 4 liters of homogenization medium (0.34M sucrose, 1 mM EDTA, and 5 mM TRIS-HCI buffer ph 7.5) and sieved through a screen. The sieved tissue was homogenized for 2 min in a Tekmar grinder. The homogenate was centrifuged successively at 980 g for 10 min and 10960 g for 10 min. The resulting supernatant was then centrifuged at 31300 g for 45 min. All procedures were carried out at 4° C. The microsomal pallet was suspended in an equal volume of 20 mM TRIS-HCI buffer pH 8.0 containing 1 mM EDTA. Centrifugation of this suspension at 123000 g for 90 min gave a pallet which is referred to as the washed microsomes. This pallet could be stored frozen for months with little loss of activity.
The washed microsomes were mixed in a ratio of 1:2 (v/v) with 50 mM TRIS-HCI buffer ph 8.0. To 3.0 ml of this solution, previously equilibrated to 37.0° C., was added 0.2 ml of a standard solution of the compound to be tested resulting in an initial concentration of 1 mg/ml. Samples of 0.50 ml were withdrawn from the test medium, mixed immediately with 1.0 ml of ice cold 95% ethanol and place in a freezer. When all samples had been collected, they were centrifuged and the supernatant analyzed by HPLC.

[5] = In vivo evaluation in rats (blood, urine and feces levels); set-up: species or system female Wistar rats; conditions: for Compound in urine after intravenous injection: i.v.
Description: A solution of test compound in DMSO was injected slowly through the jugular vein (65 mg/kg) to a group of female Wistar rats (150-200 g), 1.00 ml blood samples were taken at various time intervals, mixed with 2.00 ml of ice cold acetonitrile, and placed in a freezer. When all samples had been collected, they were centrifuged and the supernatant analyzed by HPLC. In a separate experiment urine samples were collected after i.v. administration of the test compound. A solution of test compound in polyethylene glycol was given p.o. to a group of rats (0.25 g/kg) and blood samples analyzed as before. Also, urine and feces samples were analyzed after p.o. administration of the test compound.

[6] = Estimation of LD50 in mice; conditions: mouse, in vivo, ip, intraperitoneal in dimethylsulfoxide, observed for 48 hr
Text: The LD50 in white CD-1 male mice (average mass, 24.0±0.1 g) was estimated.

ventricular arrhythmia = experiment: Evaluation of antiarrhythmic activity in dogs (ouabain-induced ventricular arrhythmia); format: in vivo, dog; conditions: for minimal effective dose: Canis lupus familiaris, iv, ouabain arrhythmia, i.v. infusion 0.5 mg/kg/min, read-out: Dose ± s.d. (dose of compound producing reversion to normal rhythm); for Duration of normal sinus rhythm after drug infusion: after end of i.v. infusion; for Dose required to produce reversion to normal rhythm relative to lidocaine / Duration of the effect relative to lidocaine: compared with lidocaine; for Arrhythmia activity in dogs: in words
Description: Dogs of either sex were anesthetized with pentabarbital sodium, 30 mg/kg, i.v. A lead II EKG was recorded and heart rate monitored on a Grass polygraph with appropriate signal treatment modules. […] After a 20 minute stabilization period during which fast paper speed record segments (100 mm/sec) were taken to assess EKG profile, a […] dose of ouabain was injected intravenously as bolus. This was followed by 5 mg/kg doses of ouabain i.v., every 10 minutes, until a ventricular arrthymias occured--at lest 50% ventricular or septal ectopic beats. This usually occurred after a total dose of about 60 mg/kg. After 10 min of sustained arrhythmia, the compound to be tested was given by i.v. in fusion at a rate of 0.5 mg/kg/min (2 ml/min, flow-rate). The infusion was maintained until a normal sinus node heart rhythm was noted. The infusion was stopped and the total dose of compound administered was determined. The length of time that the normal sinus rhythm persisted after the end of infusion of the compound was also determined.
In the table above, "dose" is dose of compound mg/kg producing reversion to normal rhythm. "Duration" is duration in minutes of normal sinus rhythm after drug infusion.

[7] = intravenous, after uptake by highly perfused organs; cited from earlier work

Row | Structure (SMILES) | Stability / degradation in human plasma [1] | Stability / degradation by esterase [2] | Stability / degradation by butyryl cholinesterase [3] | Hydrolysis by bovine liver microsomes [4] | Compound in urine after intravenous injection [5] | Unchanged compound in blood ([5]; p.o.) | Unchanged compound in urine ([5]; p.o.) | Absorption after oral administration ([5]; p.o. 0.25 g/kg) | dose excreted ([5]; rat, feces, po, 250 mg/kg, p.o., read-out: Unchanged compound in feces) | LD50 at 48 h [6] | minimal effective dose (ventricular arrhythmia) | Duration of normal sinus rhythm after drug infusion (ventricular arrhythmia) | Dose required to produce reversion to normal rhythm relative to lidocaine (ventricular arrhythmia) | Duration of the effect relative to lidocaine (ventricular arrhythmia) | Arrhythmia activity in dogs (ventricular arrhythmia) | Bioavailability ([5]; p.o.) | Unchanged compound in feces (in words) ([5]; p.o.) | Part of the dose left in blood [7]
1 | Cc1cccc(C)c1NC(=O)C[S+](C)C [Example 2, 2-Dimethylsulfonic-N-(2,6-dimethylphenyl)acetamide iodide] | no degradation could be observed over a period of 2-3 hours | no degradation could be observed over a period of 2-3 hours | no degradation could be observed over a period of 2-3 hours | hydrolyzed very slowly | Only minimal amounts | significant amounts of the unchanged compound could be detected in the blood | nothing in the urine | absorbed slowly | ~7% | 300 mg/kg | 3.82 ± 0.85 mg/kg | > 15 min | somewhat larger doses were required | much longer | considerable arrhythmia activity |  |  | 
2 | CCSCC(=O)Nc1c(C)cccc1C [Example 5, 2-Ethylthio-N-(2,6-dimethylphenyl)acetamide] | no degradation could be observed over a period of 2-3 hours | no degradation could be observed over a period of 2-3 hours | no degradation could be observed over a period of 2-3 hours |  | Only minimal amounts |  | no unchanged compound could be detected in the feces or the urine |  |  | 2100 mg/kg | 2.5 ± 2.8 mg/kg | > 20 min | somewhat larger doses were required | much longer | considerable arrhythmia activity | good bioavailability | no unchanged compound could be detected in the feces or the urine | 
3 | CCN(CC)CC(=O)Nc1c(C)cccc1C [lidocaine, reference compound] |  |  |  |  |  |  |  |  |  |  | 1.84 ± 0.32 mg/kg | 1.23 ± 0.37 min |  |  |  |  |  | about 15%

Source: patent publication US4859707A, “Sulfur-substituted phenylacetamides” (Key Pharmaceuticals, Inc., priority 1983, dated 1989)
